Assay results as given in publication PMC8537068, “Do Lipids Influence Gastrointestinal Processing: A Case Study of Major Soybean Allergen Gly m 4” (Membranes, 2021).

Key:
[1] = molecular target: T1, Gly m 4 (Glycine max, UniProt P26987); assay: TNS displacement fluorescence; type: binding; conditions: 4 µM protein, 4 µM TNS, 4 µM lipid; 0.01 M phosphate pH 7.4, 25 °C
T1 construct: gene PR-10
T1 sequence (P26987 1-158): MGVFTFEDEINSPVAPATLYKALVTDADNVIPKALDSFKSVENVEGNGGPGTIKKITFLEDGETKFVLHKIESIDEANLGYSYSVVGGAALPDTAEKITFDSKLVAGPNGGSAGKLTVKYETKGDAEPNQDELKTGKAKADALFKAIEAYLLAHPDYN

[2] = molecular target: T2, pepsin (Sus scrofa, UniProt P00791); assay: TNS displacement fluorescence; type: binding; conditions: 4 µM protein, 4 µM TNS, 4 µM lipid; 0.05 M HCl pH 2.0, 25 °C
T2 construct: gene PGA; commercial native porcine pepsin (Sigma-Aldrich), mature enzyme without propeptide
T2 sequence (P00791 60-385): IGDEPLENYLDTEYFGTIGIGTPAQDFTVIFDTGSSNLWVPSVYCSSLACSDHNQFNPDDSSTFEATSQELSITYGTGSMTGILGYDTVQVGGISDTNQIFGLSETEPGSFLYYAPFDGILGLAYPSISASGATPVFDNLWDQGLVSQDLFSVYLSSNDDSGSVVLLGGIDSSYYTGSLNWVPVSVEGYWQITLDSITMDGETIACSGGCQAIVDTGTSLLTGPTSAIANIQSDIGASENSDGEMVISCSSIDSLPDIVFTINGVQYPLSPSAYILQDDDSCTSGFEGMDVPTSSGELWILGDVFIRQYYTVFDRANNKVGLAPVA

SMILES: CCCCCCCCCCCCCCCC(=O)OC[C@@H](O)COP(=O)(O)OCC(O)CO (some centres unmarked) [LPPG, 1-palmitoyl-2-hydroxy-sn-glycero-3-phosphoglycerol]
- % of control TNS fluorescence [1]: 26%
- % of control TNS fluorescence [2]: pepsin bound to the tested FAs and LPPG with an equal efficiency

SMILES: CCCCCCCC/C=C\CCCCCCCC(=O)O [OLE, oleic acid]
- % of control TNS fluorescence [1]: 12%
- % of control TNS fluorescence [2]: pepsin bound to the tested FAs and LPPG with an equal efficiency

SMILES: CCCCCCCCCCCCCCCCCC(=O)O [STE, stearic acid]
- % of control TNS fluorescence [2]: pepsin bound to the tested FAs and LPPG with an equal efficiency
